Here are results for six molecules from US9156855B2, “Regulation of nitric oxide release and biofilm development” (Newsouth Innovation Pty Limited, priority 2011, dated 2015).

In brackets after ≈: the same amount, converted by molar mass. Structures can show the parent of a compound that is named as a salt. Where two headings read alike, the source gives them in different places.

Data set [1] relates to P. aeruginosa PAO1 wild type cells. Description: Planktonic growth inhibition, minimum inhibitory concentration. Format: cell-based. The settings on record: M9 minimal medium, 20 h growth, OD600nm of 35% or less.
The subject of data set [2] is Established P. aeruginosa biofilms. Description: Anti-biofilm efficacy of tobramycin or ciprofloxacin with compound 21 (Table 1). It is filed as cell-based. The settings on record: tobramycin 80 μg/mL or ciprofloxacin 5 μg/mL, 1 h, mean ± SEM. The source says: Values represent the log-fold reductions in cfu compared to control biofilms and are the mean of two independent experiments (±SEM).

Data set [3] relates to extracellular β-lactamases of P. aeruginosa. It is filed as biochemical. The settings on record: P. aeruginosa culture treated 1 h; imipenem 0.5 μg/ml or ampicillin 100 μg/ml.
Description: (c) Nitric oxide release in the presence of supernatants of P. aeruginosa cultures grown for 5 h in the absence of antibiotic then treated for 1 h with extracellular β-lactamase-inducing imipenem a 0.5 μg/ml (thick line) or ampicillin at 100 μg/ml (dotted line). Arrows indicate addition of the following to a reaction vial containing 10 mL Tris buffer at pH 7.0: (i) 10 μL of 150 mM Compound 15, (ii) 500 μL supernatant, (iii) 500 μL supernatant, (iv) PTIO.
In data set [4] the test system is P. aeruginosa PAO1 wild type biofilms. Description: Biofilm dispersal assay, 24-well batch culture, PAO1. The settings on record: 10 min exposure, alone. Format: cell-based.
Description: P. aeruginosa PAO1 wild type ATCC and MA67 strains, P. aeruginosa FRD1, a mucoid, cystic fibrosis (CF) isolate (Oilman and Chakrabarty, 1981), and the clinical strain P. aeruginosa 18A, which was isolated from CF sputum samples of chronically infected individual in Tasmania (Kirov et al, 2007) were used for biofilm dispersal assays. Biofilms were grown in M9 minimal medium (containing 48 mM Na2HPO4, 22 mM KH2PO4, 9 mM NaCl, 19 mM NH4Cl, pH 7.2, 2 mM MgSO4, 20 mM glucose, and 100 μM CaCl2) in 24-well plates batch cultures at 37° C. with shaking at 200 rpm. After 6 h incubation for PAO1 wild-type biofilms or 24 h incubation for FRD1 and 18A biofilms, treatments were added to each well in less than 1 min per plate and the plates were incubated for a further 10 min at 37° C. with shaking at 200 rpm. Planktonic biomass was quantified by direct measurement of OD600 of the supernatant, and the remaining biofilm biomass was quantified by crystal violet staining (O'Toole and Kolter, 1998).
The test system of data set [5] is P. aeruginosa NSGFP reporter strain (nirS-GFP). It is filed as cell-based. The settings on record: control treatments alone.
Description: To study nitric oxide release in intact cells of P. aeruginosa, the P. aeruginosa NSGFP reporter strain was used (Barraud et al., 2009). This strain harbours a gene reporter construct that expresses green fluorescent protein (GFP) when the nitric oxide-inducible nirS gene is expressed. P. aeruginosa NSGFP cells were grown with or without ampicillin at subinhibitory concentration (50 μg/ml) to induce β-lactamase activity.
The subject of data set [6] is β-lactamase (penicillinase, Sigma Aldrich). Nature of the data set: Amperometric nitric oxide release on exposure to penicillinase. It is filed as biochemical. The settings on record: non-NO-releasing cephalosporin alone, in the presence or absence of penicillinase.
Description: Arrows indicate addition of the following to a reaction vial containing 10 mL Tris buffer at pH 7.0: (a) 10 μL of 100 mM cephalosporin-3′-diazeniumdiolate, (b) 10 μl 1 U/μl penicillinase, (c) 20 μl 1 U/μl penicillinase, (d) 80 μL of 10 mM free radical scavenger PTIO.
Amperometric characterization of nitric oxide release from Compound 15. (a) Nitric oxide release in the presence of penicillinase at varying pH. Arrows indicate addition of the following to a reaction vial containing 10 mL Tris buffer at pH 9.0 (thick line), 7.0 (dashed line) or 5.0 (dotted line): (i) 10 μL of 150 mM Compound 15, (ii) 5 μL of 0.1 U/μL penicillinase, (iii) 10 μL of 0.1 U/μL penicillinase, (iv) 80 μL of 10 mM free radical scavenger PTIO. (b) Nitric oxide release in the presence of β-lactamase-expressing P. aeruginosa (thick line) or non-β-lactamase-expressing E. coli (dotted line) cell extracts. Arrows indicate addition of the following to a reaction vial containing 10 mL Tris buffer at pH 7.0: (i) 10 μL of 150 mM Compound 15, (ii) 100 μL cell extract, (iii) 200 μL cell extract, (iv) PTIO. […] The data is representative of at least three independent experiments. […]

The term melting point denotes the temperature of the solid-liquid transition. Regarding `CCN(CC)/[N+]([O-])=N/OCC1=C(C(=O)O)N2C(=O)C(NC(=O)Cc3ccccc3)C2SC1` (stereo not drawn) (as salt: potassium) [Compound 21], the melting point lay in the range of 35 to 37 °C.

For `CCN(CC)/[N+]([O-])=N/OCC1=C(C(=O)O)N2C(=O)C(NC(=O)Cc3ccccc3)C2SC1` (stereo not drawn) [Compound 15], the melting point lay in the range of 84 to 86 °C.

The MIC is the lowest concentration found to suppress growth. Take `CCN(CC)[N+]([O-])=N[O-].[Na+]` [DEA, O^2-sodium 1-(N,N-diethylamino)diazen-1-ium-1,2-diolate]: the MIC in data set [1] was found to be 16 mM.

Consider `NC[C@H]1O[C@H](O[C@H]2[C@H](O)[C@@H](O[C@H]3O[C@H](CO)[C@@H](O)[C@H](N)[C@H]3O)[C@H](N)C[C@@H]2N)[C@H](N)C[C@@H]1O` [Tobramycin], for which the “Log Reduction in Biofilm cfu” value was 2.15 ± 0.16 in data set [2] (Compound 21 0 μM (antibiotic alone)), 3.92 ± 0.06 in data set [2] (with Compound 21 10 μM) and 3.58 ± 0.15 in data set [2] (with Compound 21 100 μM).

As for `CC1(C)S[C@@H]2[C@H](NC(=O)[C@H](N)c3ccccc3)C(=O)N2[C@H]1C(=O)O` [ampicillin], the “induction of extracellular β-lactamase expression” value in data set [3] was “failure of ampicillin to induce expression”.

On to `CC(=O)OCC1=C(C(=O)O)N2C(=O)[C@@H](NC(=O)Cc3cccs3)[C@H]2SC1` [cephalothin], for which the biofilm dispersal result in data set [4] is reported as “did not induce significant dispersal events”. Besides, the MIC in data set [1] (Pseudomonas aeruginosa, PAO1, read-out: MIC) worked out at 16 mM (≈ 6340 µg/mL). Besides, the GFP fluorescence result in data set [5] is “no effect on GFP fluorescence”. Besides, the values for the nitric oxide release entry in data set [6] and in data set [6] (listed as cefalotin) were “no release of nitric oxide was observed” and “undetectable”, respectively.
